# Biological target: PIK3CB;PIK3CG;PIK3CD;PIK3CA (human) (UniProt P48736)
# Assay: Enzyme Assay
row,SMILES,IC50 [µM]
1,O=C(c1nn(C2CCCN(CCC(C(F)(F)F)C(F)(F)F)C2)c2c1CS(=O)(=O)c1ccccc1-2)N1CCOCC1 (centres undefined),0.679
2,CN1CCN(Cc2ccc(-n3nc(C(=O)N4CCOCC4)c4c3-c3ccccc3S(=O)(=O)C4)cn2)CC1,0.335
3,O=C(c1nn(C2CCCN(c3ccccc3)C2)c2c1CS(=O)(=O)c1ccccc1-2)N1CCOCC1 (centres undefined),0.468
4,COCc1ccc(-n2nc(C(=O)N3CCOCC3)c3c2-c2ccccc2S(=O)(=O)C3)cc1,0.667
5,COc1ccc2c(c1)S(=O)(=O)Cc1c(C(=O)N3CCOCC3)nn([C@H]3CCCN(CCN4CCOCC4)C3)c1-2,0.024
6,O=C(c1nn(-c2cccc(CN3CCSCC3)c2)c2c1CS(=O)(=O)c1ccccc1-2)N1CCOCC1,0.232
7,O=C(c1nn([C@H]2CCN(C3CCOCC3)C2)c2c1CS(=O)(=O)c1c(F)cccc1-2)N1CCOCC1,0.052
8,COCCN1CCCC(n2nc(C(=O)N3CCOCC3)c3c2-c2ccccc2S(=O)(=O)C3)CC1 (centres undefined),0.478
9,O=C(c1cccc(-n2nc(C(=O)N3CCOCC3)c3c2-c2ccccc2S(=O)(=O)C3)c1)N1CCCC(O)C1 (centres undefined),0.348
10,CCn1nc(C(=O)N2CCOCC2)c2c1-c1ccccc1S(=O)(=O)C2,0.601
11,O=C(c1nn(-c2ccccc2)c2c1CS(=O)(=O)c1ncccc1-2)N1CCOCC1,0.53
12,Cc1noc(-c2cccc(-n3nc(C(=O)N4CCOCC4)c4c3-c3ccccc3S(=O)(=O)C4)c2)n1,2.69
13,O=C(c1nn(C2CCN(CCN3CC[C@H](F)C3)C2)c2c1CS(=O)(=O)c1ccccc1-2)N1CCOCC1 (some centres undefined),0.192
14,O=C(c1nn(C2CCCN(CCn3cccn3)C2)c2c1CS(=O)(=O)c1ccccc1-2)N1CCOCC1 (centres undefined),0.169
15,O=C(c1nn(-c2cccc(CN3CCC(O)CC3)c2)c2c1CS(=O)(=O)c1ccccc1-2)N1CCOCC1,0.573
16,CCOc1ccc2c(c1)S(=O)(=O)Cc1c(C(=O)N3CCOCC3)nn(-c3ccc(CN4CCOCC4)cc3)c1-2,0.25

# Continued by falling IC50, values first:
row,IC50 [µM],SMILES
1,14.5,COc1ccc(C(=O)Cn2nc(C(=O)N3CCOCC3)c3c2-c2ccccc2S(=O)(=O)C3)cc1
2,4.95,O=C(c1nn(-c2cccc(N3CCCC3)c2)c2c1CS(=O)(=O)c1ccccc1-2)N1CCOCC1
3,4.19,COCc1noc(-c2cccc(-n3nc(C(=O)N4CCOCC4)c4c3-c3ccccc3S(=O)(=O)C4)c2)n1
4,3.11,CN(C)CCCn1nc(C(=O)N2CCOCC2)c2c1-c1ccccc1S(=O)(=O)C2
5,1.56,O=C(c1nn(CC2CCCO2)c2c1CS(=O)(=O)c1ccccc1-2)N1CCOCC1 (centres undefined)
6,1.44,O=C(c1nn([C@H]2CCN(C3CCOCC3)C2)c2c1CS(=O)(=O)c1ccccc1-2)N1CCOCC1
7,1.12,O=C(c1nn(-c2ccc(Br)cc2)c2c1CS(=O)(=O)c1ccccc1-2)N1CCOCC1
8,0.824,CC(C)(C)OC(=O)N1CCCC(n2nc(C(=O)N3CCOCC3)c3c2-c2ccccc2S(=O)(=O)C3)CC1 (centres undefined)
9,0.661,O=C(c1nn(CCO)c2c1CS(=O)(=O)c1ccccc1-2)N1CCOCC1
10,0.661,Cc1nnc(-c2cccc(-n3nc(C(=O)N4CCOCC4)c4c3-c3ccccc3S(=O)(=O)C4)c2)s1
11,0.639,O=C(c1nn(-c2cccc(CN3CCS(=O)(=O)CC3)c2)c2c1CS(=O)(=O)c1ccccc1-2)N1CCOCC1
12,0.477,O=C(c1nn(-c2ccccc2)c2c1CS(=O)(=O)c1nccn1-2)N1CCOCC1
13,0.454,Nc1ncc(-c2cccc(-n3nc(C(=O)N4CCOCC4)c4c3-c3ccccc3S(=O)(=O)C4)c2)cn1
14,0.353,O=C(c1nn(C2CCN(CC3CCOC3)C2)c2c1CS(=O)(=O)c1ccccc1-2)N1CCOCC1 (centres undefined)
15,0.34,O=C(c1nn([C@H]2CCCN(C3CCOCC3)CC2)c2c1CS(=O)(=O)c1ccccc1-2)N1CCOCC1
16,0.12,CC1(C)CN(Cc2ccc(-n3nc(C(=O)N4CCOCC4)c4c3-c3ccccc3S(=O)(=O)C4)cc2)CCO1
17,0.073,CC1(C)CN(CCN2CCC[C@H](n3nc(C(=O)N4CCOCC4)c4c3-c3ccccc3S(=O)(=O)C4)C2)CCO1
18,0.038,O=C(c1nn(C2CCCN(CCN3CC(F)(F)C3)C2)c2c1CS(=O)(=O)c1c(F)cccc1-2)N1CCOCC1 (centres undefined)
